The values below come from ChEMBL document CHEMBL1122706, “2,5-Anhydro-1-deoxy-1-phosphono-D-altritol, an isosteric analogue of alpha-D-ribofuranose 1-phosphate” (J Med Chem, 1984).

Assay [1] deals with T1, Purine nucleoside phosphorylase (Homo sapiens) (UniProt P00491).
T1 sequence (whole entry): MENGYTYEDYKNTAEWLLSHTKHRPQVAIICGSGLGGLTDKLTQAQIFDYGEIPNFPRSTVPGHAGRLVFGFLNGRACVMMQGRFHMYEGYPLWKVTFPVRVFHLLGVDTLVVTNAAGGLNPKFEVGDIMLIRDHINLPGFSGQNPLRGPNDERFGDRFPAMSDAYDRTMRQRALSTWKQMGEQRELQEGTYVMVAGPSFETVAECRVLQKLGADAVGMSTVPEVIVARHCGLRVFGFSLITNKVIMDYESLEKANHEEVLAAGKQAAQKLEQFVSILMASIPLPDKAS
The assay can be described thus: Inhibitory activity against purine nucleoside phosphorylase at a concentration of 6 mM; NA = No activity.

Assay [2] in a line: Inhibitory activity against uridine phosphorylase at a concentration of 4 mM by using 5-fluorouracil and ribose 1-phosphate as substrates; NI = No inhibition.

SMILES strings stand for the structures. Active and inactive are the calls of the source. The calls are words filed in the database; no cut-off is given here.

As to `O=P(O)(O)C[C@H]1O[C@H](CO)[C@@H](O)[C@H]1O`, the inhibition entry in assay [1] and in assay [2] was “inactive” in each case.
`O=P(O)(O)C[C@@H]1O[C@H](CO)[C@@H](O)[C@H]1O`: the inhibition entry in assay [1] is “inactive”.
